These results are taken from PubChem BioAssay (NCI).

Common to all, as to assay: inhibition of tumour cell growth, NCI panel, 48 h
The test system of experiment [1] is MCF7 breast.
For experiment [2], the system named is SF-539 CNS.
Experiment [3] relates to BT-549 breast.
The subject of experiment [4] is UACC-257 melanoma.
Experiment [5] deals with HL-60(TB) leukemia.
The test system of experiment [6] is T-47D breast.

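Grown in 96-well plates, cells were treated for 48 hours with each compound at five concentrations. Insufficient inhibition: endpoint recorded as highest concentration tested. At the GI50, growth is halved. TGI denotes the concentration required for complete inhibition of growth.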 Some results are limits rather than exact numbers.

For the molecule `C=C1C(=O)O[C@H]2[C@H]1CC/C(Cn1cc(Cn3ccc4ccccc43)nn1)=C\CC[C@@]1(C)O[C@@H]21`, the GI50 in experiment [1] was 1.3 µM; in experiment [2] it was 1.86 µM; in experiment [3], 1.38 µM; in experiment [4], 2.04 µM; in experiment [5], 1.2 µM. Moreover, the TGI is 3.18 µM in experiment [1]; 3.35 µM in experiment [2]; 2.69 µM in experiment [3]; 4.41 µM in experiment [4]; 3.79 µM in experiment [5].

As for `Cc1cc(C)c(O)c(Cc2cccc(Cc3cc(C)cc(C)c3O)c2O)c1`, the TGI in experiment [1], in experiment [2], in experiment [6], in experiment [3] and in experiment [4] was over 100 µM each time.

On to `Nc1ncnc2c1nc(-c1ccccc1)n2C1OC(CO)C(O)C1O` (stereo not given), for which the TGI in experiment [1], in experiment [2], in experiment [6], in experiment [3], in experiment [4] and in experiment [5] was over 100 µM throughout.

`Cc1ccc(S(=O)(=O)/N=c2\ssc(Nc3ccccc3)c2Cl)cc1`: the GI50 in experiment [3] was 5.27 µM; in experiment [4], 9.86 µM; in experiment [5] it was 15.5 µM. Besides, the TGI was 17 µM in experiment [3], 30.3 µM in experiment [4] and over 50 µM in experiment [5].

Turning to `Cc1n[nH]c(=S)n1/N=C/c1ccc(F)c(Oc2ccccc2)c1`, the GI50 was 41.4 µM in experiment [1]; 27.7 µM in experiment [2]; over 100 µM in experiment [6]; 63.7 µM in experiment [3]; 25.4 µM in experiment [4]; 48.6 µM in experiment [5]. Moreover, the TGI in experiment [1] is over 100 µM; in experiment [2] it was 65.1 µM; in experiment [6] it was over 100 µM; in experiment [3], over 100 µM; in experiment [4], 75.3 µM; in experiment [5] it was over 100 µM.

`O=C1C(=O)c2ccccc2-c2ccccc21`: the GI50 in experiment [1] was 1.67 µM; in experiment [2] it was 1.6 µM; in experiment [6], 0.49 µM; in experiment [3] it was 1.66 µM; in experiment [4] it was 1.52 µM; in experiment [5], 1.56 µM. Moreover, the TGI in experiment [1] worked out at 3.8 µM; in experiment [2], 2.99 µM; in experiment [6], 2.72 µM; in experiment [3] it was 3.07 µM; in experiment [4] it was 3.07 µM; in experiment [5] it was 4.11 µM.

Regarding `O=[N+]([O-])c1cc(CCl)ccc1CCl`, the TGI in experiment [1] is 3.28 µM; in experiment [2], 7.14 µM; in experiment [6], 1.03 µM; in experiment [3], 11.1 µM; in experiment [4], over 20.1 µM.

Regarding `Cc1cc(O)c(C(c2cccnc2)c2c(O)cc(C)[nH]c2=O)c(=O)[nH]1`, the TGI in experiment [1], in experiment [6], in experiment [3], in experiment [4] and in experiment [5] was over 100 µM each time.

As to `CCCc1cc2cc(-n3nc(C)c4c3CC(C)(C)CC4=O)cc(NC3CCC(O)CC3)c2c(=O)[nH]1` (stereo not given), the GI50 is 0.0516 µM in experiment [1]; 0.782 µM in experiment [2]; 0.0994 µM in experiment [6]; 0.959 µM in experiment [3]; 0.372 µM in experiment [4]; 0.13 µM in experiment [5]. For the same molecule, the TGI was over 100 µM in experiment [1]; over 100 µM in experiment [2]; over 100 µM in experiment [6]; over 100 µM in experiment [3]; over 100 µM in experiment [4]; 1.2 µM in experiment [5].

On to `Cn1ncc2c(/N=C/c3cccs3)[nH]c(=S)nc21`, for which the GI50 in experiment [1] is 27.4 µM; in experiment [2] it was 32.2 µM; in experiment [6] it was 35.9 µM; in experiment [3], 33.2 µM; in experiment [4], over 65.4 µM; in experiment [5], 43.6 µM. Moreover, the TGI in experiment [1] was over 80.3 µM; in experiment [2], over 100 µM; in experiment [6] it was over 100 µM; in experiment [3] it was over 91.3 µM; in experiment [4], over 100 µM; in experiment [5] it was over 100 µM.

For `CN1CCC[C@@H]1CCO[C@](C)(c1ccccc1)c1ccc(Cl)cc1`, the GI50 in experiment [1] is 2.98 µM; in experiment [2] it was 9.94 µM; in experiment [6], 3.29 µM; in experiment [3], 9.64 µM; in experiment [4], 1.9 µM; in experiment [5] it was 4.03 µM. Also, the TGI in experiment [1] was 11.7 µM; in experiment [2] it was 23.7 µM; in experiment [6], 16.4 µM; in experiment [3], 22.4 µM; in experiment [4], 4.17 µM; in experiment [5] it was 18 µM.

In the case of `COc1ccc2c(c1)CCc1c(-c3noc4c3CCc3cc(OC)ccc3-4)noc1-2`, the TGI in experiment [1], in experiment [2], in experiment [6], in experiment [3], in experiment [4] and in experiment [5] was over 100 µM throughout.

As to `COc1ccc(-c2cnc3ccnn3c2-c2cc(OC)c(OC)c(OC)c2)cc1`, the GI50 in experiment [1] was 3.51 µM; in experiment [2] it was 1.99 µM; in experiment [6], over 100 µM; in experiment [3], 12.2 µM; in experiment [4] it was 91.6 µM; in experiment [5] it was 2.3 µM. The TGI was over 100 µM in experiment [1]; 6.11 µM in experiment [2]; over 100 µM in experiment [6]; 95.4 µM in experiment [3]; over 100 µM in experiment [4]; 7.16 µM in experiment [5].

Consider `C/C(CC(=O)NNc1ccc([N+](=O)[O-])cc1)=N\Nc1ccc([N+](=O)[O-])cc1`, for which the GI50 was 12.9 µM in experiment [1]; 5.97 µM in experiment [2]; 3.71 µM in experiment [6]; 39.6 µM in experiment [4]; 2.48 µM in experiment [5]. The TGI in experiment [1], in experiment [2], in experiment [6], in experiment [4] and in experiment [5] was over 100 µM in each case.
